The subject of one series is Strain 264 E. Coli. Kind of series: non-specific resistivity of mice infected with E. Coli. The class given is in vivo, Strain C57BL6 mice. More on the design: Mean lifetime: unit not given beside the values. The method, then: Doses of the preparation ranging from 200 to 0.2 μg were injected intraperitoneally at ten-fold intervals in 0.5 ml of physiologic solution to Strain C57BL6 mice two hours before their infecting. Mice were infected with S. Typhi in a dose of 1·10^4 microbial cells; another group of animals was infected with Strain 264 E. coli in a dose of […] microbial cells. Mice infected with the same microbial culture, but receiving no preparation, were used a controls. Lethal outcomes in mice were recorded every day for a period of 10 days.

The subject of series [1] is natural killers (CD3−, CD16+ and CD56+). Nature of the series: cytotoxic activity of natural killers against K-562 cells. The class given is cell-based, human. The method, then: Labeled cells of […] of myeloblastoid Strain K-562, as well as mononuclear cells of 10 healthy blood donors and 10 patients with various diseases with low and high levels of cytotoxicity, were used for the study of effects of various concentrations of the preparation on cytotoxic activity of natural killers (CD3^−, CD16^+ and CD56^+).
The used Strain K-562 cells to effector cells ratio was 1:25 (100 μl of labeled cells and 100 μl of mononuclear cells). The studies were carried out using 96-well plates; incubation for 16 to 24 hours in a CO2-incubator at 37° C. was carried out. Then, the contents of the wells was transferred to filters, washed, dried and placed in solution with scintillation liquid with consecutive determination of index using a β-counter. Cytotoxic index (CI) was calculated using the following formula: [formula]
A=the target cells radioactivity in the presence of effector cells;
B=radioactivity after cells treatment with […] (maximum value);
C=radioactivity of target cells in the absence of effector cells.

In series [2] the test system is cellular immune response (DHR to ram erythrocytes). Nature of the series: delayed hypersensitivity reaction (DHR) in mice. The class given is in vivo. The method, then:
To evaluate the effect of the preparation on cellular immunity reaction, delayed hypersensitivity reaction (DHR) was used. The mice were sensitized by subcutaneous injection of 1·10^7 ram erythrocytes contained in a volume of 20 μl. Doses of the preparation ranging from 0.2 to 2,000 μg were injected at ten-fold intervals simultaneously with sensitizing and shocking dose of the antigen. Shocking dose of ram erythrocytes (1·10^8) was injected under aponeurotic plate of left hind paw on the 5th day after sensitization. Injection of 20 μl of physiologic solution in the right paw served as control. Intensity of inflammatory reaction was recorded 24 hours after the administration of shocking dose of the antigen. For this purpose, the mice were killed and, immediately after this, both paws were amputated at the level of ankle joint and weighed on torsion balance. Reaction index (RI) was determined as the difference of masses of study (S) and control (C) paws using the following formula: [formula]

Structures are written as SMILES. Entries after “also recorded” stand apart in the source; their conditions may differ. Read-outs that look alike come from different tables or passages of the source.

Procedure for spleen cell culture: Effects of the compounds on lymphoid cells proliferation and interleukin-2 induction in vitro were evaluated with the use of Strain BalB/c mice weighing 16 to 18 g. Animals of control and study groups were matched by sex and weight. Each dose of the preparation was tested on 10 animals; as a whole, more than 800 mice have been studied.
Spleens of the animals were used for carrying out the immunologic reactions. The organs were cut and homogenized in a glass homogenizer. […] The suspensions were centrifuged in a K23 centrifuge at 1,500 rpm at 4° C. for 10 minutes.
The suspensions were diluted 100-fold with 3% acetic acid contrasted with methylene blue, and cells were counted in Goryaev's chamber. Cell viability was evaluated with aid of 0.1% trypan blue in physiologic solution.

For the molecule `Cl.Nc1cccc2c(=O)[nH][nH]c(=O)c12` [5-amino-2,3-dihydrophthalazine-1,4-dione hydrochloride], the lymphoid cells proliferation with spleen cell culture (2.5 μg/ml, ConA) is recorded as 195 ± 27; in the series on spleen cell culture (2.5 μg/ml, LPS) it was 251 ± 44; in the series with spleen cell culture (2.5 μg/ml, no mitogen) it was 249 ± 93; in the series on spleen cell culture (12.5 μg/ml, ConA) it was 178 ± 28; in the series on spleen cell culture (12.5 μg/ml, LPS) it was 256 ± 40; in the series with spleen cell culture (12.5 μg/ml, no mitogen), 369 ± 56. In addition, the lymphoid cells proliferation in the series with spleen cell culture (50 μg/ml, ConA) stood at 11860 ± 1566; with spleen cell culture (50 μg/ml, LPS), 13232 ± 928; in the series on spleen cell culture (50 μg/ml, no mitogen), 2576 ± 237; in the series with spleen cell culture (500 μg/ml, ConA) it was 1323 ± 192; in the series with spleen cell culture (500 μg/ml, LPS), 3870 ± 308; in the series on spleen cell culture (500 μg/ml, no mitogen), 1763 ± 94. Also, the mitogenic properties entry with spleen cell culture (50 μg/ml to 12.5 mg/ml) was “no mitogenic properties”. Also, the “spontaneous proliferation of spleen cells and proliferation induced by ConA and LPS” value in the series with spleen cell culture (higher concentrations) was “inhibited”.

Turning to `Nc1cccc2c(=O)[nH][nH]c(=O)c12.[Ca]` [calcium salt of 5-amino-2,3-dihydrophthalazine-1,4-dione], the Mean lifetime in the series with Strain 264 E. Coli (dose 0.2 μg) is listed as 2.2; in the series on Strain 264 E. Coli (dose 2 μg), 1.0; in the series with Strain 264 E. Coli (dose 20 μg), 1.0; in the series with Strain 264 E. Coli (dose 200 μg), 1.0. Also, the “Number of lethal outcomes, day 1” value with Strain 264 E. Coli (dose 0.2 μg i.p., 10 mice) came out at 4; with Strain 264 E. Coli (dose 2 μg i.p., 10 mice) it was 10; with Strain 264 E. Coli (dose 20 μg i.p., 10 mice), 10; in the series with Strain 264 E. Coli (dose 200 μg i.p. two hours before infecting, 10 mice) it was 10. Moreover, the “Number of lethal outcomes, day 3” value in the series with Strain 264 E. Coli (dose 0.2 μg i.p., 10 mice) was 6. In the series on Strain 264 E. Coli (dose 0.2 μg, versus controls), the “increase in lifetime of animals infected with E. Coli” value is listed as 2.2 fold. Besides, the “effects on the resistivity of mice infected with E. Coli” value in the series on Strain 264 E. Coli (doses 200 to 2 μg) is on record as “no effects”.

Take `CNc1cccc2c(=O)[nH][nH]c(=O)c12.[Na]` [sodium salt of 5-methylamino-2,3-dihydrophthalazine-1,4-dione]: the “Cytotoxic index level, % (M)” value in series [1] (2.5 μg/ml, High control level of CI) was 57 ± 0.7%; in series [1] (2.5 μg/ml, Low control level of CI), 34 ± 1.3%; in series [1] (2.5 μg/ml, Medium control level of CI) it was 41.9 ± 0.9%; in series [1] (5.0 μg/ml, High control level of CI) it was 54 ± 0.8%; in series [1] (5.0 μg/ml, Low control level of CI), 30 ± 1.2%. Moreover, the “CI, %” value in series [1] (2.5 μg/ml, normal level of CI) is 41.9 ± 2.8%; in series [1] (5.0 μg/ml, normal level of CI), 38.8 ± 3.1%; in series [1] (10.0 μg/ml, normal level of CI) it was 40.8 ± 3.0%; in series [1] (25.0 μg/ml, normal level of CI), 41.4 ± 3.0%; in series [1] (50.0 μg/ml, normal level of CI), 39.1 ± 4.0%; in series [1] (75.0 μg/ml, normal level of CI) it was 37.7 ± 4.1%. For the same molecule, the “CI, %” value in series [1] (150.0 μg/ml, normal level of CI) was 41.0 ± 3.5%; in series [1] (300.0 μg/ml, normal level of CI), 39.0 ± 3.1%. The “cytotoxicity of natural killers” value in series [1] (2.5 and 5.0 μg/ml, high initial level of CI) is recorded as “statistically significant inhibition”. The “functional activity of natural killers” value in series [1] (2.5 and 5.0 μg/ml, low initial level of CI) was “statistically significant stimulation”. Besides, the “modification of natural killers cytotoxicity” value in series [1] (2.5 to 300 μg/ml, normal level of CI) is listed as “did not cause significant modification”.

For `Nc1ccc2c(=O)[nH][nH]c(=O)c2c1.[Na]` [sodium salt of 6-amino-2,3-dihydrophthalazine-1,4-dione], the Reaction index in series [2] (2 μg, Strain C57BL6 mice) amounted to 19 ± 9; in series [2] (2 μg, Strain CBA mice) it was 11 ± 8; in series [2] (20 μg, Strain C57BL6 mice) it was 16 ± 9; in series [2] (20 μg, Strain CBA mice) it was 10 ± 5; in series [2] (200 μg, Strain C57BL6 mice), 15 ± 6; in series [2] (200 μg, Strain CBA mice), 2 ± 1.5. Moreover, the “development of DHR” value in series [2] (200 μg, high-reaction Strain CBA mice) is “inhibition of DHR; also recorded: suppressed”; in series [2] (20 to 2 μg, mice of both strains) it was “no effect”. Besides, in series [2] (mice of both strains, as the dose of the preparation decreased), the “reaction index (trend)” value was “tendency to increase”.

(Values after patent US20030195183A1, “Method for correcting immune system of live body” (priority 2000, published 2003).)
